In test [1] the target is T1, FAAH (Rattus norvegicus, UniProt P97612).
T1 sequence (P97612 1-579): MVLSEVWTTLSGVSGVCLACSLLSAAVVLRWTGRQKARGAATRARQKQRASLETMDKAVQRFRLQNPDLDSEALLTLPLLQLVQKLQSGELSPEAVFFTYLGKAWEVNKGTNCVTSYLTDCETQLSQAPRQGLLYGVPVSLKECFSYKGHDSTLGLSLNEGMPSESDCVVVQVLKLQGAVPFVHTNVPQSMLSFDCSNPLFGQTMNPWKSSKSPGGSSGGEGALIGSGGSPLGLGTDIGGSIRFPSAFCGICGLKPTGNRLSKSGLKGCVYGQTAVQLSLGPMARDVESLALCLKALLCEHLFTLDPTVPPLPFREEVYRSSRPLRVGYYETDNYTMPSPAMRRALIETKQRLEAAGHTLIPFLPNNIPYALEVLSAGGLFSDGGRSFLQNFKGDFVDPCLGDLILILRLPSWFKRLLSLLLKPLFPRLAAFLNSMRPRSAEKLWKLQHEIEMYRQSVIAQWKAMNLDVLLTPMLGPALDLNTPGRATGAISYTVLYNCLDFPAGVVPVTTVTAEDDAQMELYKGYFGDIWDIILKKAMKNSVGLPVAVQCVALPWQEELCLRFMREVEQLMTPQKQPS
Nature of the test: Inhibition of FAAH catalysed [3H]-AEA hydrolysis. In kind it is biochemical. The following applies: for IC50: FAAH catalysed [3H]-AEA hydrolysis, read-out: pI50 (converted). How it is done: (§1) The FAAH inhibitory compound that we are investigating is an analogue of PEA called palmitoylallylamide (L-29). It was developed by Dr Didier Lambert and team at the Unité de Chimie pharmaceutique et de Radiopharmacie, Universite catholique de Louvain, Brussels, Belgium. The capacity of L-29 to inhibit FAAH was calculated by measuring the ability of the compound to inhibit FAAH catalysed [^3H]-AEA hydrolysis (maximum inhibition and pI50 calculated). […] Binding to CB1 and CB2 receptors was also calculated by measuring the displacement of radioactive [^3H]-CP55,940 from a cell line transfected with CB1 receptors and radioactive [^3H]-WIN55,212-2 from a cell line transfected with CB2 receptors.

The target in test [2] is T2, CB1 receptors (Homo sapiens, UniProt P21554).
T2 construct: expressed in transfected cells
Nature of the test: Displacement of [3H]-CP55,940 from a cell line transfected with CB1 receptors. In kind it is binding. The following applies: concentration of 10 μM. On the procedure:
as §1
(In general: Loss of bound radioactivity is the signal in a displacement assay; it reports binding, not function.)

In test [3] the target is T3, CB2 receptors (Homo sapiens, UniProt P34972).
T3 construct: expressed in transfected cells
Nature of the test: Displacement of [3H]-WIN55,212-2 from a cell line transfected with CB2 receptors. The test is classed as binding. The following applies: concentration of 10 μM. On the procedure:
as §1

Test [4] deals with formalin-evoked pain in the rat. The experiment in a line: Formalin test (CPS-WST(0,1,2) pain score). The test is classed as in vivo. How it is done: All experiments conformed with British Home Office regulations. Male Wistar rats weighing 230-290 g were obtained from B&K. Animals were housed in group cages and maintained on a 12-hour light-dark cycle with ad libitum access to food and water. Each animal was used in one experiment only.
L-29 was a gift from D Lambert (see FIG. 1 for chemical structure). SR1 and SR2 were a gift from Sanofi and capsazepine was purchased from Tocris. All drugs were dissolved in 40% dimethyl sulphoxide (DMSO) and saline.
Rats were randomised into seven groups. Investigator JB carried out the dosing of the animals to conform with Home Office regulations, while investigator HJ carried out all other duties including scoring the behavioural test, she was blinded to the drugs given. All animals were acclimatised to the testing environment for at least 30 min prior to the experiment beginning. Each animal received a first intraperitoneal (i.p.) injection of either vehicle or antagonist and five minutes later a second i.p. injection of either vehicle or L-29. […] 10 min later all the animals received a formalin injection.
50 μl of 2.5% formalin was injected subcutaneously into the dorsum of the right hind paw via a 27G needle. The paw was then marked with permanent ink. The animal was immediately replaced in the observation chamber, a clear plexiglass box measuring 23 cm×18 cm×14 cm, with a mirror positioned underneath at 45° to allow an unobstructed view of the paw. Observations began as the rats were placed in the box and continued for 60 min. Their behaviour was rated according to the Composite Pain Score, Weighted Scores Technique (CPS-WST (0,1,2)), a validated pain behaviour scoring system for the rat formalin test (Watson et al 1997). The amount of time spent in each of 2 behavioural categories was measured for each consecutive 5 min period within the hour scored. Category 1, the injected paw is elevated and not in contact with any surface and category 2, the injected paw is licked, bitten or shaken. A weighted score was then obtained for each 5 min period and for phase 1 (0-15 min) and phase 2 (15-60 min), by using the formula below:
CPS-WST=(1×time in category 1)+(2×time spent in category 2)
Data was analysed using the one-way ANOVA test followed by Dunnett's test using the SigmaStat 2.3 computer package.

Test [5] deals with rats rendered neuropathic by partial sciatic nerve ligation. Nature of the test: Thermal hyperalgesia (Hargreaves' device), partial sciatic nerve ligation model. The test is classed as in vivo, rat. How it is done: (§2) Male Wistar rats, weighing 250-350 g (mean 300 g) were housed at a constant temperature under a 14:10 light/dark cycle, with free access to food and water.
(§3) The animals were randomised into four experimental groups, with six animals in each group:
(§4) Group B. L-29 in a DMSO Vehicle in Three i.p. Doses: 0.1 mgkg^−1, 1 mgkg^−1, 10 mgkg^−1
(§5) In this study, six animals were allocated to each dose group and baseline limb withdrawal thresholds were recorded for each animal at t=0. This was immediately followed by the ip. administration of L-29 solution.
(§6) Limb withdrawal thresholds to all three modalities were recorded at t=0. Each animal then received i.p. injection of the antagonist in a 40% DMSO and saline solution, immediately followed by the administration of L-29 at a dose of 1 mgkg^−1 via the same route. Sensory testing resumed and limb withdrawal thresholds were recorded over the course of the experiment as described.
(§7) Following the original description for partial sciatic nerve ligation by Seltzer et al.^2, surgery was performed in equal number. Under inhalational anaesthesia using isoflurane and nitrous oxide, the left sciatic nerve was exposed at upper-thigh level and the dorsal third—half of the sciatic nerve tightly ligated with a 7-0 silk suture at a site just distal to the point at which the posterior biceps semitendinosus nerve branches off the sciatic nerve. Haemostasis was confirmed and the wound then closed with muscle and skin sutures and a small volume of 0.5% bupivicaine administered subcutaneously. A strict aseptic technique was maintained throughout. The animal was then recovered and returned to its housing environment and a post-operative check conducted the following day. See FIG. 12 for full description and protocol.
Behavioural tests included simple reflex withdrawal to mechanical, thermal and cold stimuli. […] Baseline sensory thresholds were measured pre-operatively on the day of surgery and on post-operative day eight. […] Sensory thresholds were recorded at time (t) 0, 20, 40, 60 and 80 minutes post drug administration.
Thermal hyperalgesia is assessed using a noxious infrared heat stimulus applied to the plantar surface of both hind paws as described by Hargreaves et al.^4 Paw withdrawal thresholds to a focused beam of radiant heat at a constant temperature of 46° C. and infrared intensity (of twenty for rats and thirty for mice) is measured. […] Sampling is repeated five times to each paw with three minutes between testing and a mean withdrawal threshold is calculated.
(§8) Statistical significance was determined for neuropathy by the paired t-test and for drug effects by the one-way ANOVA (Dunnett's test) (compared to post-operative values), both taking p<0.05 as statistically significant.

The test system is the same in test [6]. The experiment in a line: Mechanical allodynia (electronic von Frey), partial sciatic nerve ligation model. The test is classed as in vivo, rat. On the procedure: as §2, §3, §4, §5, §6, §7
Behavioural tests included simple reflex withdrawal to mechanical, thermal and cold stimuli. Before commencing experiments, animals were allowed to acclimatise to the testing environment for at least 15 minutes until exploratory behaviour had ceased. In order to minimise bias, the experiment to be conducted was randomised (according to a predetermined random number table—see table 2) on the day of testing and the drug doses were drawn up and given by a separate investigator to the one scoring the behavioural tests who was blinded to the drugs given. Baseline sensory thresholds were measured pre-operatively on the day of surgery and on post-operative day eight. […] Sensory thresholds were recorded at time (t) 0, 20, 40, 60 and 80 minutes post drug administration. […]
as §8

The test system is the same in test [7]. Nature of the test: Cold allodynia (acetone drop), partial sciatic nerve ligation model. The following applies: for positive response to cold stimulus (declined from 100%): between 40-60 minutes post drug. The test is classed as in vivo, rat.
Test [8] relates to WIN2 induced catalepsy. The following applies: 1 mg/kg i.p.; cited from earlier work.
[9] abbreviates: antagonist 1 mgkg^−1 i.p. + L-29 1 mgkg^−1 i.p.

Bounds are passed on as bounds.

T3 sequence (P34972 whole entry): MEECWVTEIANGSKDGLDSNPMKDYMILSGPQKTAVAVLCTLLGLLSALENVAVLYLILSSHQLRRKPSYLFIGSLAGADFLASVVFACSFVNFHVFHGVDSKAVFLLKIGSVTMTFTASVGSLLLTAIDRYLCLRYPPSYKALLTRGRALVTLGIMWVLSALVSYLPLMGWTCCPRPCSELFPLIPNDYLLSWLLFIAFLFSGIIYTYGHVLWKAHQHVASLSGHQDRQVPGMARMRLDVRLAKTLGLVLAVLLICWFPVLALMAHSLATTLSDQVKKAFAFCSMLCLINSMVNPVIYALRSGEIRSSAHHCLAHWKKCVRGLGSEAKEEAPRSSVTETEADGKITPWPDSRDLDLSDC
T2 sequence (P21554 whole entry): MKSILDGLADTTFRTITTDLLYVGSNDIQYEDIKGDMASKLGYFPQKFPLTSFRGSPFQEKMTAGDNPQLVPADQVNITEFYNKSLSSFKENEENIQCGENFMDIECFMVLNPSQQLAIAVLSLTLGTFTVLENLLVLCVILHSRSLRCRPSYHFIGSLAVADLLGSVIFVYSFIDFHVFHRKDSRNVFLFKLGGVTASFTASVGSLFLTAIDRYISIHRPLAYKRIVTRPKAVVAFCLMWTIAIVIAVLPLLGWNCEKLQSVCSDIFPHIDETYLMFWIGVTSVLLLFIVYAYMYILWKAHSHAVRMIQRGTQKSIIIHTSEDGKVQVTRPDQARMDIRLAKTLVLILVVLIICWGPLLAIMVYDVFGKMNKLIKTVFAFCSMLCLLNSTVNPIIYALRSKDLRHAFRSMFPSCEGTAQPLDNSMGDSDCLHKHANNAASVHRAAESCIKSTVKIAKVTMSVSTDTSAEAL

For `C=CCNC(=O)CCCCCCCCCCCCCCC` [L-29, N-(2-propenyl)hexadecanamide], in test [1], the “maximum inhibition of FAAH catalysed [3H]-AEA hydrolysis” value is given as 67%. Besides, in test [1], the IC50 is 3.39 µM. Further, the “displacement of [3H]-CP55,940 in the CB1 assay” value in test [2] was found to be 13.3%. Besides, in test [3], the “displacement of [3H]-WIN55,212-2 in the CB2 assay” value was found to be 7.8%. For the same compound, in test [4] (0.1 mg/kg i.p.), the “pain behaviour v control” value is “not significantly different from control”. In addition, the “pain behaviour v control (P<0.05)” value in test [4] (1 mg/kg i.p.) and in test [4] (10 mg/kg i.p.) was “significantly attenuated pain behaviour” each time. Moreover, the “pain behaviour in both phases of the formalin test” value in test [4] (0.1, 1 and 10 mg/kg i.p., 10 min before 2.5% formalin s.c.) was “dose-dependently inhibited”. The “attenuation of thermal hyperalgesia” value in test [5] (0.1 mgkg^−1 i.p.) was “only at 40 minutes”; in test [5] (1 mgkg^−1 i.p.) it was “attenuated later between 40 and 60 minutes post drug injection”; in test [5] (10 mgkg^−1 i.p., between 20 and 60 minutes post drug), “Attenuation of thermal hyperalgesia was greatest”. Besides, the “reversal of mechanical allodynia” value in test [6] (0.1 mgkg^−1 i.p.) was “only at 80 minutes post i.p drug administration”; in test [6] (10 mgkg^−1 i.p.), “No effect on mechanical allodynia”. Moreover, the “reversal of mechanical allodynia (mechanical sensory thresholds)” value in test [6] (1 mgkg^−1 i.p., at 20 minutes and 60 minutes post drug) is “significant increase in mechanical sensory thresholds”. In addition, in test [7] (0.1 mgkg^−1 i.p., between 20-40 minutes), the “decline in positive response to cold stimulus” value is given as “decline by almost half”. Also, the “positive response to cold stimulus (declined from 100%)” value in test [7] (1 mgkg^−1 i.p.) and in test [7] (10 mgkg^−1 i.p.) was 50% throughout. Also, the “reversal of cold allodynia” value in test [7] (all doses (0.1, 1, 10 mgkg^−1 i.p.)) is recorded as “did not yield a statistically significant reversal of cold allodynia”.
As for `CCCCCCCCCCCCCCCC(=O)NCCO` [PEA, Palmitoylethanolamide, reference compound], in test [1], the “maximum inhibition of FAAH catalysed [3H]-AEA hydrolysis” value is reported as 78% and the IC50 is 5.01 µM. Further, in test [2], the “displacement of [3H]-CP55,940 in the CB1 assay” value worked out at 23.8%. In addition, the “displacement of [3H]-WIN55,212-2 in the CB2 assay” value in test [3] is reported as 13.9%.
With `Cc1c(C(=O)NN2CCCCC2)nn(-c2ccc(Cl)cc2Cl)c1-c1ccc(Cl)cc1` [SR1, reference compound], in test [4] (phase 2 (15-60 min), antagonist 1 mg/kg i.p. prior to 1 mg/kg L-29), the “effect of receptor antagonist on antinociceptive effect of L-29” value is “reverses the antinociceptive effect of L-29”. For the same compound, the “effect of co-administered antagonist on anti-hyperalgesic effect of L-29 (thermal)” value in test [5] (setting [9]) was “appeared not to prevent the anti-hyperalgesic and anti-allodynic effects”. Also, the “effect of co-administered antagonist on anti-allodynic effect of L-29 (mechanical)” value in test [6] (setting [9]) is “appeared not to prevent the anti-hyperalgesic and anti-allodynic effects”. Besides, the “cold allodynia on co-administration of antagonist and L-29” value in test [7] (setting [9]) is “significant reduction in % positive response to cold stimulus”. For the same compound, the “time to significant antagonism of WIN2 induced catalepsy” value in test [8] is reported as not above 15 min.
As to `Oc1cc2c(cc1O)CN(C(=S)NCCc1ccc(Cl)cc1)CCC2` [capsazepine, reference compound], the “effect of receptor antagonist on antinociceptive effect of L-29” value in test [4] (either phase, SR2 1 mg/kg or capsazepine 10 mg/kg i.p. prior to 1 mg/kg L-29) was “do not significantly reverse the antinociceptive effect of L-29”.

Values taken from patent US20080269325A1, “Methods to Relieve Pain” (Imperial Innovations Limited, priority 2004, published 2008).
